Data reported in patent US5288720A, “Angiotensin II receptor blocking 2,3,6 substituted quinazolinones” (American Cyanamid Company, priority 1993, dated 1994).

Test system: ANGIOTENSIN II VASOPRESSOR RESPONSE
Assay: AII Challenge: blockade of angiotensin II vasopressor response in conscious SHR
Format: in vivo, rat (Conscious Male Okamoto-Aoki SHR)
Details: SHR n=2
Procedure, shortened: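 Conscious male Okamoto-Aoki SHR (16-20 weeks, ~330 g) cannulated in aorta and vena cava under local procaine; angiotensin II (human) 0.05 and 0.1 ug/kg i.v. given before and at 30-300 min after test compound i.v., i.p. or orally. Rise in systolic pressure (mmHg) expressed as % blockade versus each rat's predose response.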

[1] = 3 mg/kg i.v., AII 0.05 mcg/kg IV, 30 min post dose
[2] = 3 mg/kg i.v., AII 0.05 mcg/kg IV, 60 min post dose
[3] = 3 mg/kg i.v., AII 0.05 mcg/kg IV, 90 min post dose
[4] = 3 mg/kg i.v., AII 0.05 mcg/kg IV, 120 min post dose
[5] = 3 mg/kg i.v., AII 0.05 mcg/kg IV, 180 min post dose
[6] = 3 mg/kg i.v., AII 0.05 mcg/kg IV, 240 min post dose
[7] = 3 mg/kg i.v., AII 0.05 mcg/kg IV, 300 min post dose
[8] = 3 mg/kg i.v., AII 0.1 mcg/kg IV, 30 min post dose
[9] = 3 mg/kg i.v., AII 0.1 mcg/kg IV, 60 min post dose
[10] = 3 mg/kg i.v., AII 0.1 mcg/kg IV, 90 min post dose
[11] = 3 mg/kg i.v., AII 0.1 mcg/kg IV, 120 min post dose
[12] = 3 mg/kg i.v., AII 0.1 mcg/kg IV, 180 min post dose
[13] = 3 mg/kg i.v., AII 0.1 mcg/kg IV, 240 min post dose
[14] = 3 mg/kg i.v., AII 0.1 mcg/kg IV, 300 min post dose
[15] = 3 mg/kg p.o., AII 0.05 mcg/kg IV, 30 min post dose
[16] = 3 mg/kg p.o., AII 0.05 mcg/kg IV, 60 min post dose
[17] = 3 mg/kg p.o., AII 0.05 mcg/kg IV, 90 min post dose
[18] = 3 mg/kg p.o., AII 0.05 mcg/kg IV, 120 min post dose
[19] = 3 mg/kg p.o., AII 0.05 mcg/kg IV, 180 min post dose
[20] = 3 mg/kg p.o., AII 0.05 mcg/kg IV, 240 min post dose
[21] = 3 mg/kg p.o., AII 0.1 mcg/kg IV, 30 min post dose
[22] = 3 mg/kg p.o., AII 0.1 mcg/kg IV, 60 min post dose
[23] = 3 mg/kg p.o., AII 0.1 mcg/kg IV, 90 min post dose
[24] = 3 mg/kg p.o., AII 0.1 mcg/kg IV, 120 min post dose
[25] = 3 mg/kg p.o., AII 0.1 mcg/kg IV, 180 min post dose
[26] = 3 mg/kg p.o., AII 0.1 mcg/kg IV, 240 min post dose

Structure (SMILES): CCCCc1nc2ccc(C(OC)C3CCCO3)cc2c(=O)n1Cc1ccc(-c2ccccc2-c2nn[nH]n2)cc1 (single isomer, unassigned) [Example 24]
- % Inhibition of AII vasopressor response [1]: 100%
- Average Change (systolic blood pressure response to AII) [1]: 0 mmHg
- % Inhibition of AII vasopressor response [2]: 93%
- Average Change (systolic blood pressure response to AII) [2]: 2.5 mmHg
- % Inhibition of AII vasopressor response [3]: 93%
- Average Change (systolic blood pressure response to AII) [3]: 2.5 mmHg
- % Inhibition of AII vasopressor response [4]: 87%
- Average Change (systolic blood pressure response to AII) [4]: 5 mmHg
- % Inhibition of AII vasopressor response [5]: 80%
- Average Change (systolic blood pressure response to AII) [5]: 7.5 mmHg
- % Inhibition of AII vasopressor response [6]: 80%
- Average Change (systolic blood pressure response to AII) [6]: 7.5 mmHg
- % Inhibition of AII vasopressor response [7]: 83%
- Average Change (systolic blood pressure response to AII) [7]: 6.5 mmHg
- % Inhibition of AII vasopressor response [8]: 100%
- Average Change (systolic blood pressure response to AII) [8]: 0 mmHg
- % Inhibition of AII vasopressor response [9]: 87%
- Average Change (systolic blood pressure response to AII) [9]: 5 mmHg
- % Inhibition of AII vasopressor response [10]: 87%
- Average Change (systolic blood pressure response to AII) [10]: 5 mmHg
- % Inhibition of AII vasopressor response [11]: 100%
- Average Change (systolic blood pressure response to AII) [11]: 0 mmHg
- % Inhibition of AII vasopressor response [12]: 81%
- Average Change (systolic blood pressure response to AII) [12]: 7.5 mmHg
- % Inhibition of AII vasopressor response [13]: 62%
- Average Change (systolic blood pressure response to AII) [13]: 15 mmHg
- % Inhibition of AII vasopressor response [14]: 59%
- Average Change (systolic blood pressure response to AII) [14]: 16 mmHg
- % Inhibition of AII vasopressor response [15]: 64%
- Average Change (systolic blood pressure response to AII) [15]: 17.5 mmHg
- % Inhibition of AII vasopressor response [16]: 54%
- Average Change (systolic blood pressure response to AII) [16]: 22.5 mmHg
- % Inhibition of AII vasopressor response [17]: 48%
- Average Change (systolic blood pressure response to AII) [17]: 25 mmHg
- % Inhibition of AII vasopressor response [18]: 54%
- Average Change (systolic blood pressure response to AII) [18]: 22.5 mmHg
- % Inhibition of AII vasopressor response [19]: 20%
- Average Change (systolic blood pressure response to AII) [19]: 39 mmHg
- % Inhibition of AII vasopressor response [20]: 12%
- Average Change (systolic blood pressure response to AII) [20]: 42.5 mmHg
- % Inhibition of AII vasopressor response [21]: 57%
- Average Change (systolic blood pressure response to AII) [21]: 22.5 mmHg
- % Inhibition of AII vasopressor response [22]: 38%
- Average Change (systolic blood pressure response to AII) [22]: 32.5 mmHg
- % Inhibition of AII vasopressor response [23]: 33%
- Average Change (systolic blood pressure response to AII) [23]: 35 mmHg
- % Inhibition of AII vasopressor response [24]: 29%
- Average Change (systolic blood pressure response to AII) [24]: 37.5 mmHg
- % Inhibition of AII vasopressor response [25]: 29%
- Average Change (systolic blood pressure response to AII) [25]: 37.5 mmHg
- % Inhibition of AII vasopressor response [26]: 24%
- Average Change (systolic blood pressure response to AII) [26]: 40 mmHg
